In patent publication US20080119451A1, “Novel Benzamide Derivatives” (ASTRAZENECA AB, priority 2005, published 2008):

Assays:
HCT116 cells = assay: In vitro assay of inhibition of proliferation in whole cells (Promega MTS assay); format: cell-based; settings: Homo sapiens, HCT-116, 72 hours treatment, read-out: Test (b) IC50
Description: (b) In Vitro Assay of Inhibition of Proliferation in Whole Cells
Inhibition of proliferation in whole cells was assayed using the Promega cell titer 96 aqueous proliferation assay (Promega #G5421). HCT116 cells were seeded in 96 well plates at 1×10^3 cells/well, and allowed to adhere overnight. They were treated with inhibitors for 72 hours. 20 μl of the tetrazolium dye MTS was added to each well and the plates were reincubated for 3 hours. Absorbance was then measured on a 96 well plate reader at […]. The IC50 values for HDAC inhibitors were determined by performing dose response curves with individual compounds and determining the concentration of inhibitor producing fifty percent decrease in maximal signal (diluent control).

recombinant human HDAC1 = target: T1, recombinant human HDAC1 (Homo sapiens, UniProt Q13547); assay: In vitro enzyme assay of recombinant HDAC1 (Fluor de Lys deacetylase assay); format: biochemical; settings: recombinant human HDAC1 produced in Hi5 insect cells; acetylated histone H4 peptide substrate; read-out: Test (a) IC50
T1 construct: FLAG (C); made in house; host or cells: Hi5 insect cells
T1 sequence (Q13547 whole entry): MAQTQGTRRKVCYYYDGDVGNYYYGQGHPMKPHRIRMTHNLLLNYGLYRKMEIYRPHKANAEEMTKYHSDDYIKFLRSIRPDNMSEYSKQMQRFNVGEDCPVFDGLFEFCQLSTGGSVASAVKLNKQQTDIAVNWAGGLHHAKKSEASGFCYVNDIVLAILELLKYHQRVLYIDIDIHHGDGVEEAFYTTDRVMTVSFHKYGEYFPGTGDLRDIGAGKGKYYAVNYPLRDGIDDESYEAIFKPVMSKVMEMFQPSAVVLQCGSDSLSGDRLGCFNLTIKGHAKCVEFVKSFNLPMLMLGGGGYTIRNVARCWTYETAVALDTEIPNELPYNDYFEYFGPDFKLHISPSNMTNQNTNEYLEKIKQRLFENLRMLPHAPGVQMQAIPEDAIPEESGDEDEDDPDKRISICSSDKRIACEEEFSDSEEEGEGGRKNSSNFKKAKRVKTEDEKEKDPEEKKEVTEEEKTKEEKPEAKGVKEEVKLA
Description: (a) In Vitro Enzyme Assay of Recombinant HDAC1
HDAC inhibitors were screened against recombinant human HDAC1 produced in Hi5 insect cells. The enzyme was cloned with a FLAG tag at the C-terminal of the gene and affinity purified using Anti-FLAG M2 agarose from SIGMA (A2220).
The deacetylase assays were carried out in a 50 μl reaction. […] The reaction was stopped by addition of an equal volume (50 μl) Fluor de Lys developer (Biomol) containing Trichostatin A at 2 μM. […] IC50 values for HDAC enzyme inhibitors were determined by performing dose response curves with individual compounds and determining the concentration of inhibitor producing fifty percent decrease in the maximal signal (diluent control).

## Cc1cc(CN2CCC2)cnc1-c1ccc(C(=O)Nc2ccccc2N)cc1 [Example 4, N-(2-aminophenyl)-4-[5-(azetidin-1-ylmethyl)-3-methylpyridin-2-yl]benzamide]
HCT116 cells
  IC50: 310 nM
Recombinant human HDAC1
  IC50: 21 nM

## Cc1cc(CN2CCN(C(C)C)CC2)cnc1-c1ccc(C(=O)Nc2ccccc2N)cc1 [Example 2, N-(2-aminophenyl)-4-{5-[(4-isopropylpiperazin-1-yl)methyl]-3-methylpyridin-2-yl}benzamide]
HCT116 cells
  IC50: 238 nM
Recombinant human HDAC1
  IC50: 19 nM

## Nc1ccccc1NC(=O)c1ccc(-c2ccccn2)cc1 [Comparator, N-(2-aminophenyl)-4-pyridin-2-ylbenzamide, reference compound]
HCT116 cells
  IC50: 2330 nM
Recombinant human HDAC1
  IC50: 89 nM
